Experimental findings from patent US9877981B2, “NAD biosynthesis and precursors for the treatment and prevention of cancer and proliferation” (President and Fellows of Harvard College, priority 2012, dated 2018) are described below.

Test [1] concerns HIF-1α. Description: Immunoblot of HIF-1α in PGC-1α/β KO myotubes. As to conditions: PGC-1α/β knockout myotubes treated with DMOG. It is filed as cell-based, mouse. The procedure:
Primary myoblasts cells were isolated from WT, SIRT1 KO (Price et al., 2012) and PGC-1α/β KO (Zechner et al., 2010) mice as previously described (Price et al., 2012). WT and PGC-1α/β KO primary myoblasts were plated and allowed to differentiate into myotubes by replacing the media with low glucose DMEM supplemented with 2% horse serum (Sigma-Aldrich) for 4 days. After the differentiation the cells were infected with empty vector or flag-SIRT1 adenovirus as described before (Gerhart-Hines et al., 2007). Media was replaced with fresh DMEM supplemented with 2% horse serum (Sigma-Aldrich) for an additional 48 hr and, after that the cells were harvested for the different assays as described. […]
(§1) Protein extracts from tissue or C2C12 cells were obtained by lysis in ice-cold lysis buffer (150 mM NaCl, 10 mM Tris HCl (pH 7.4), 1 mM EDTA, 1 mM EGTA, 1% Triton X-100, 0.5% NP-40) supplemented with a cocktail of protease and phosphatase inhibitors (Roche). Protein content was determined by the Bradford protein assay (Biorad), and 50 μg proteins were run on SDS-PAGE under reducing conditions. […] The immunostaining was detected using horseradish peroxidase-conjugated anti-rabbit or anti-mouse immunoglobulin for 1 h at room temperature.
A general note: In western blotting, separated proteins are transferred to a membrane and probed.

The subject of test [2] is C2C12 myoblasts. Description: mtDNA content and ETC gene expression in C2C12 myoblasts. Particulars: C2C12 myoblasts treated with DMOG, 16 h. It is filed as cell-based, mouse. The procedure:
C2C12 cell line (ATCC) was cultured in low glucose Dulbecco's modified eagle medium (DMEM) (Invitrogen) supplemented with 10% FBS (Invitrogen) and a mix of antibiotic and antimycotic (Invitrogen). To inhibit SIRT1, cells were treated the vehicle (0.001% DMSO) or 10 μM EX-527 (Tocris) for 12 h. C2C12 myoblasts were infected with an empty or SIRT1 adenovirus as described before (Gerhart-Hines et al., 2007) and the media was replaced with fresh DMEM for additional 48 h, after that the cells were treated as described before. To test the effects of hypoxia and HIFα stabilization in genome asyncrony, C2C12 myoblasts were exposed to 1% oxygen for 16 h or treated with the vehicle (0.001% DMSO) or DMOG (Cayman) for the same period of time.
RNA from skeletal muscle tissue and C2C12 cells were extracted with RNeasy mini kit (Qiagen) according to the instructions and quantified using the NanoDrop 1000 spectrophotometer (Thermo Scientific). cDNA was synthesized with the iSCRIP cDNA synthesis kit (BioRad) using 600 ng of RNA. Quantitative RT-PCR reactions were performed using 1 μM of primers and LightCycler® 480 SYBR Green Master (Roche) on an LightCycler® 480 detection system (Roche). Calculations were performed by a comparative method (2-ΔCT) using 18S as an internal control. For mtDNA analysis, total DNA was extracted with DNeasy blood and tissue kit (Qiagen). mtDNA was amplified using primers specific for the mitochondrial cytochrome c oxidase subunit 2 (COX2) gene and normalized to genomic DNA by amplification of the ribosomal protein s18 (rps18) nuclear gene. Primers were designed using the IDT software (IDT) and the primer sequences can be found in Table 1.

Test [3] relates to NAD+. Description: NAD+ levels in skeletal muscle of mice treated with NMN. It is filed as in vivo, C57BL/6J mice. As to conditions: young and old. Here is the method: C57BL/6J mice of 3, 6, 22, 24, or 30 months of age were obtained from the National Institutes of Aging mouse aging colony. Mice were acclimated for at least one-week prior to sacrifice. 3, and 24-month-old mice were given interperitoneal (IP) injections of 500 mg NMN/kg body weight per day or the equivalent volume of PBS for 7 consecutive days at 5:00 pm and 7:00 am on day 8 and sacrificed 4 hr after last injection. All animal studies followed the guidelines of and were approved by the Harvard Institutional Animal Care and Use Committee
NAD^+ from C2C12 cells and skeletal muscle was quantified with a commercially available kit (BioVision) according to the manufacturer's instructions and as described before (Gomes et al., Biochim. Biophys. Acta. 1822:185-195 (2012)).
C57BL/6J mice of 6, 22, or 30 months of age were obtained from the National Institutes of Aging mouse aging colony. Additionally 22 months old caloric restricted mice were also obtained from the National Institutes of Aging mouse aging colony. EGLN1 KO, SIRT1 KO and SIRT1 OE mice were generated as previously described (Minamishima et al., 2008; Price et al., 2012). Mice were acclimated for at least one-week prior to sacrifice. […]
NAD^+ from skeletal muscle was quantified with a commercially available kit (BioVision) according to the manufacturer's instructions and as described before (Gomes et al., 2012). […]

For test [4], the system named is AKT and IRS-1 phosphorylation. Description: Insulin signaling immunoblot (p-AKT, p-IRS-1) in muscle of treated mice. As to conditions: old mice treated with NMN; soleus. The class given is in vivo.
Excerpt: C57BL/6J mice of 6, 22, or 30 months of age were obtained from the National Institutes of Aging mouse aging colony. Additionally 22 months old caloric restricted mice were also obtained from the National Institutes of Aging mouse aging colony. EGLN1 KO, SIRT1 KO and SIRT1 OE mice were generated as previously described (Minamishima et al., 2008; Price et al., 2012). Mice were acclimated for at least one-week prior to sacrifice. 3, 6, 22 and 24-month-old mice were given interperitoneal (IP) injections of 500 mg NMN/kg body weight per day or the equivalent volume of PBS for 7 consecutive days at 5:00 pm and 7:00 am on day 8 and sacrificed 4 hr after last injection.
as §1, with “conditions. The separated proteins were then electrophoretically transferred to a polyvinylidene difluoride membrane (Perkin-Elmer).” for “conditions.”

As to `COC(=O)CNC(=O)C(=O)OC` [DMOG, dimethyloxaloylglycine], in test [1], the HIF-1α protein result is reported as “stabilizes HIF-1α protein”. In addition, in test [2], the “expression of mitochondrially-encoded ETC genes” value was “specific decline”, the “expression of nuclear-encoded ETC components” value is given as “not the nuclear-encoded components” and the mtDNA content result was “specific decline in mtDNA content”.
Take `NC(=O)c1ccc[n+]([C@@H]2O[C@H](COP(=O)([O-])O)[C@@H](O)[C@H]2O)c1` [NMN, nicotinamide mononucleotide]: the “levels of cellular NAD+” value in test [3] (3- and 24-month-old C57BL/6J mice, NMN 500 mg/kg IP for one week, skeletal muscle) is “approximately 2 fold”; in test [3] (6- and 22-month-old C57BL/6J mice, NMN for one week), 2 fold. The “age-induced insulin resistance in the skeletal muscle” value in test [4] is on record as “reverse age-induced insulin resistance”. The “phosphorylation of AKT and IRS-1” value in test [4] is listed as “increasing the phosphorylation”.
